# Entries after “also recorded” stand apart in the source; their conditions may differ.
# Legend:
# [1] = tested on: S. aureus; experiment: ASTM E 2783-11 protocol, 15 seconds, ingredients in Base A (Example 16); format: cell-based; details: for synergistic activity with chlorhexidine (in words): Experiment 1, Base A; for Log reduction compared to control: ingredients in Base A
# Protocol: The antimicrobial efficacy of a composition comprising biguanides and fennel oil, thyme oil/thymol and/or vanilla oil was tested against S. aureus (10^7 cfu/ml). […] In-vitro study Test organism: S. aureus (10^7 cfu/ml) […] These plates were incubated at 37° C. for 24 hours and the colony counts (cfu)/ml were determined.
# [2] = tested on: murine fibroblasts cell lines; details: cited from earlier work
# [3] = tested on: S. aureus; experiment: Rapid kill method (10^8 cfu/ml S. aureus), 15 seconds, oral rinse base; format: cell-based
# Protocol: Synergistic effect of botanical extracts and biguanides (Rapid kill method (108 S. aureus)): The antimicrobial effect of an oral rinse base, containing the ingredients described in table 10 below, were tested against a high concentration of bacteria. In a sterile culture tube, 0.1 ml of S. aureus (10^8 cfu/ml) was treated with 0.9 ml of test mouthrinse for 15 seconds. The reaction was stopped with Drug neutralizing Fluid (DNF) and then further diluted with the same media. 0.5 ml of the dilution was then plated on Tripticase Soy Agar (TSA) and incubated at 37° C. overnight. The colony counts were determined and the log 10 reduction from the control (phosphate-buffered saline (PBS) inoculated with the same culture) was calculated.
# [4] = 0.12% solutions, oral decontamination prior to mechanical intubation; cited from earlier work
# [5] = use as oral antiseptic; cited from earlier work
# [6] = tested on: human dennal, gingival and osteoblastic cell lines; details: cited from earlier work
# [7] = tested on: methicillin-resistant Staphylococcus aureus (“MRSA”); experiment: MRSA Rapid-Kill Assay (tube-dilution, US FDA-TFM, 15 second exposure); format: cell-based
# [8] = tested on: P. aeruginosa; experiment: Agar-plate method: sample spread on TSA, 1 hr, then inoculated; log10 reduction; format: cell-based; details: Example 3
# Protocol: For oral care products, PHMB is preferred because BAC can produce mucosal irritation. PHMB is effective against gram negative bacteria. Therefore P. aeruginosa which is a gram negative organism was used in these tests. An agar-plate method was used/0.5 ml of the test sample was spread on TSA plates and for control PBS was used in the plate. These plates were incubated for 1 hr in the incubator at temperature 37±1° C. After 1 hr, the plates were taken out of the incubator and inoculated with 0.5 ml of 1×10^3 cfu/ml culture of P. aeruginosa. The plates were incubated for 18-24 hrs at 37±1° C. The antibacterial activity was determined by calculating the difference in log 10 colony-forming units (cfu) between control and test samples (i.e., log 10 reduction).
# [9] = Experiment 1, S. aureus 10^7 cfu/ml, T, B, F, V each 0.1 % w/w, CHG 0.12 % w/w
# [10] = Experiment 2, S. aureus 10^7 cfu/ml, each 0.1 % w/w
molecule,measurement,setting,value
[H]/N=C(\N/C(=N/[H])NCCCCCCNC(=N)NC(=N)Nc1ccc(Cl)cc1)Nc1ccc(Cl)cc1 [chlorhexidine],synergistic activity with chlorhexidine (in words),[1]; 10^7 cfu/ml,"combination of either fennel seed oil and thymol or fennel seed oil, thymol and vanilla oil with chlorhexidine also exhibited synergistic activity"
same,synergistic activity with chlorhexidine (in words),"[1]; 10^7 cfu/ml, listed as Chlorhexidine",exhibits synergistic activity when combined with either thymol or basil oil
same,cytotoxicity,[2],cytotoxic
same,synergistic antibacterial activity of botanical extracts and biguanides (in words),[3]; Example 10,did not show such synergism
same,risk of acquiring VAP,[4],can reduce the risk of acquiring VAP
same,adverse effects,[5],"irritation of the oral mucosa, discoloration of teeth and altered taste perception"
same,cytotoxicity,[6],cytotoxic
[H]/N=C(\N/C(=N/[H])NCCCCCCNC(=N)NC(=N)Nc1ccc(Cl)cc1)Nc1ccc(Cl)cc1 [Chlorhexidine (CHG)],Log reduction compared to control,[1]; [9],0.73 log
Cc1ccc(C(C)C)c(O)c1 [T (Thymol)],Log reduction compared to control,[1]; [9],1.29 log
same,Log reduction compared to control,[1]; [10],1.29 log
N=C(NCCCCCCNC(=N)NC(=N)Nc1ccc(Cl)cc1)NC(=N)Nc1ccc(Cl)cc1 [CHX (0.06%)],Log10 Growth,"[3]; Table 10, in oral rinse base, control growth 7.29",5.60 log10
same,Log10 Reduction,"[3]; Table 10, in oral rinse base, reduction from control (PBS)",1.69 log10
benzalkonium chloride [BAC],"antibacterial activity, effect of combining actives (in words)","[7]; Example 1, actives in base formulation",enhanced the activity of essential oil mixtures containing thymol
same,"antibacterial activity, effect of combining actives (in words)",[7]; Example 4,enhances the activity of essential oils (CN+LG+T)
same,Log reduction from control growth,"[7]; Table 1, MRSA, conc. active agent 0.13 % w/w",0.05 log10
same,Log reduction from control growth,"[7]; Table 2, MRSA, conc. active agent 0.13 % w/w",0.05 log10
same,Log reduction from control growth,"[7]; Table 5A, MRSA, conc. active agent 0.6 % w/w",0.5 log10
polyhexamethylene biguanide [PHMB],synergistic activity with PHMB (in words),"[1]; Experiment 2, Base A, 10^7 cfu/ml","exhibited synergistic activity when combined with either thymol or vanilla oil; also recorded: combination of either fennel seed oil and thymol or fennel seed oil, thymol and vanilla oil with PHMB also exhibited synergistic activity"
same,Log reduction compared to control,[1]; [10],1.96 log
same,"antibacterial activity, effect of combining actives (in words)",[8],enhanced the activity of low concentrations of essential oils and lemon extract
same,"antibacterial activity, effect of combining actives (in words)","[7]; Example 1, PHMB at 0.06%",showed synergistic activity with essential oils
same,Log reduction from control growth,"[7]; Table 1, MRSA, conc. active agent 0.012 % w/w",0.4 log10
same,Log reduction from control growth,"[7]; Table 1, MRSA, conc. active agent 0.06 % w/w",3.1 log10
same,Log reduction from control growth,"[7]; Table 2, MRSA, conc. active agent 0.012 % w/w",0.4 log10
same,Log reduction from control growth,"[7]; Table 5B, MRSA, conc. active agent 0.06 % w/w",4.0 log10
pentanediol,"antibacterial activity, effect of combining actives (in words)",[8],enhanced the activity of low concentrations of essential oils and lemon extract

# Reference: patent publication US20150265666A1, “BOTANICAL ANTIMICROBIAL COMPOSITIONS” (THE TRUSTEES OF COLUMBIA UNIVERSITY IN THE CITY OF NEW YORK, priority 2012, published 2015)
